Drawing on BindingDB's records for doi:10.1021/bi7018282 (Cornell University, 2008), this text covers Kd for two compounds.

For orientation: Kd means the constant that tells how readily two partners part at equilibrium. Lower therefore signals higher affinity.

In the assay the target is T1, Thiamine-binding periplasmic protein (Escherichia coli (strain K12), UniProt P31550).
T1 sequence (P31550 whole entry): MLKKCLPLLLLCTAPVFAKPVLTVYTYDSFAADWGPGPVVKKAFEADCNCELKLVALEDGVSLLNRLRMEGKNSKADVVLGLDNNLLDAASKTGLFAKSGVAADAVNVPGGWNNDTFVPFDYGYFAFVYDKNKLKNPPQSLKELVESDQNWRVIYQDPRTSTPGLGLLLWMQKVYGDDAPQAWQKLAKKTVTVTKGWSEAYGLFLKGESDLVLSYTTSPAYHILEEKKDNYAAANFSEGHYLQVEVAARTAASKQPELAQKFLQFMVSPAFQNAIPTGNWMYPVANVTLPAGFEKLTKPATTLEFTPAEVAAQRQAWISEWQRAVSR
The assay can be described thus: Titration Assay. Here is the method: the kd for ThOH, ThMP and ThDP were determined using titration experiments in which the change in the intrinsic protein fluorescence was monitored as a function of ligand concentration.

SMILES strings stand for the structures.

In turn, `Cc1ncc(C[n+]2csc(CCO[P@](=O)(O)OP(=O)(O)O)c2C)c(N)n1` [ThDP] displayed a Kd of 7.4 nM.
Compound `Cc1ncc(C[n+]2csc(CCO)c2C)c(N)n1` [Vitamin B 1] returned a Kd of 3.8 nM.
